Laboratory results published in PubChem BioAssay AID623864 (Southern Research Specialized Biocontainment Screening …, 2012).
Activity calls are given as the source filed them. How the calls were made is not given here.

Test system: not listed separately
Test: viability of VeroE6 cells – cytotoxicity control for flavivirus guanylyltransferase probe project, dose response (AID 623864)
Conditions: VeroE6 cell viability, cytotoxicity CC50; at 50 µM (top of the series)
With Cn1c(=O)c2[nH]c(-c3ccc(Cl)cc3)c(O)c2n(C)c1=O the viability was 72.3% (inactive).

Test system: VeroE6 cell viability, cytotoxicity CC50
Test: as above
Conditions: not given
O=[N+]([O-])c1cccc(S(=O)(=O)Nc2cc(Sc3nc4ccccc4s3)c(O)c3ccccc23)c1 gave a CC50 of 7.37 µM.
In the case of O=S(=O)(Nc1cc(Sc2ncn[nH]2)c(O)c2ccccc12)c1ccc(F)cc1, the CC50 is reported as 31.7 µM.
Molecule Cc1cc(F)ccc1S(=O)(=O)Nc1cc(SCC(=O)O)c(O)c2ccccc12 has a CC50 of 21.6 µM.
With O=S(=O)(Nc1cc(Cl)c(O)c2ccccc12)c1ccc(F)cc1 the CC50 was 29.4 µM.
Work on Cc1cc(C)c(S(=O)(=O)Nc2cc(SCC(=O)O)c(O)c3ccccc23)c(C)c1 yielded a CC50 of 12.6 µM.
For Cc1ccc(S(=O)(=O)Nc2cc(Sc3nc(C)cc(C)n3)c(O)c3ccccc23)cc1, the CC50 was 12.8 µM.
O=C(O)CSc1cc(NS(=O)(=O)c2cccc3cccnc23)c2ccccc2c1O gave a CC50 of 19.2 µM.
With O=C(O)CSc1cc(NS(=O)(=O)c2cccc([N+](=O)[O-])c2)c2ccccc2c1O the CC50 was 30.9 µM.
In the case of O=S(=O)(Nc1cc(SCc2ccccc2)c(O)c2ccccc12)c1ccc(Cl)cc1, the CC50 is reported as 32.3 µM.
Cc1ccc(S(=O)(=O)Nc2cc(SCC(=O)O)c(O)c3ccccc23)cc1 showed a CC50 of 27.6 µM.
In the case of COc1ccc(OC)c(S(=O)(=O)Nc2cc(SCC(=O)O)c(O)c3ccccc23)c1, the CC50 is reported as 29.7 µM.
Work on O=C(O)CSc1cc(NS(=O)(=O)c2ccc(F)cc2)c2ccccc2c1O yielded a CC50 of 20 µM.
Molecule O=C(O)CSc1cc(NS(=O)(=O)c2ccc(Br)cc2)c2ccccc2c1O has a CC50 of 21.6 µM.
For O=C(O)CSc1cc(NS(=O)(=O)c2ccc(Cl)cc2)c2ccccc2c1O, the CC50 was 30.8 µM.
With O=[N+]([O-])c1cccc(S(=O)(=O)Nc2cc(SCc3ccccc3)c(O)c3ccccc23)c1 the CC50 was 14.4 µM.
